Laboratory results taken from paper PMC7901646, “Pyrrolo[2′,3′:3,4]cyclohepta[1,2-d][1,2]oxazoles, a New Class of Antimitotic Agents Active against Multiple Malignant Cell Types” (Journal of Medicinal Chemistry, 2020).

How the values were obtained:
Type in all cases: cell-based
UACC-257 = test: NCI-60 screen; settings: Homo sapiens, Melanoma
In short: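 Testing used the NCI-60 panel (human leukemia, non-small-cell lung, colon, CNS, melanoma, ovarian, renal, prostate, breast lines). Dose was a single 10^–5 M.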

Mcl-1 = test: Western blot, apoptosis proteins; settings: HeLa, 0.1 or 0.5 μM, 24 or 48 h
Procedure: (§1) To study in greater detail the apoptotic process induced by 66, we evaluated the expression of the cleaved fragment of poly(ADP)ribose polymerase (PARP), a common marker of apoptosis,[66] by Western blot analysis. HeLa cells were treated with compound 66 at 0.1 or 0.5 μM for 24 or 48 h. The cleavage fragment of PARP appeared at 24 h after beginning treatment with only 0.1 μM 66. The expression of two antiapoptotic proteins, Mcl-1 and XIAP, was also studied. Mcl-1, a member of the Bcl-2 family, is highly expressed in many types of tumors and takes part in the apoptotic response to multiple stimuli. […] Similarly, expression of Xiap, a member of the family of inhibitors of apoptosis proteins, was reduced (at 24 h) and diappeared (at 48 h) after HeLa cell treatment with 66 (Figure 9). The functions of this protein are to inhibit the activity of caspase-3, caspase-7, and caspase-9 through a direct interaction with these enzymes. Following this interaction, the entire apoptotic process is inhibited.[69]
(§2) HeLa cells were incubated in the presence of the test compound and, after different times, were collected, centrifuged, and washed two times with ice cold PBS. The pellet was resuspended in lysis buffer. After the cells were lysed on ice for 30 min, lysates were centrifuged at 15 000g at 4 °C for 10 min. The protein concentration in the supernatant was determined using the BCA protein assay reagents (Pierce, Italy). Equal amounts of protein (10 μg) were resolved using sodium dodecyl sulfate–polyacrylamide gel electrophoresis (Criterion Precast, BioRad, Italy) and transferred to a PVDF Hybond-P membrane (GE Healthcare). Membranes were blocked with a bovine serum albumin solution (5% in Tween PBS 1×), and the membranes were gently rotated overnight at 4 °C in the albumin solution. Membranes were then incubated with primary antibodies against PARP cleaved fragment, cdc25c, cyclin B, p-cdc2^Tyr15, XIAP, and Mcl-1 (all from Cell Signaling) or GAPDH (Sigma-Aldrich) for 2 h at room temperature. Membranes were next incubated with peroxidase labeled secondary antibodies for 1 h. All membranes were visualized using ECL Select (GE Healthcare), and images were acquired using an Uvitec-Alliance imaging system (Uvitec, Cambridge, U.K.). To ensure equal protein loading, each membrane was stripped and reprobed with anti-GAPDH antibody. To obtain relative quantitative data, ImageJ software (NIH, USA) was used for scanning densitometry analysis of Western blots.

XIAP = test: Western blot, apoptosis proteins; settings: HeLa
Procedure: as §1, §2

PARP = test: Western blot, apoptosis proteins; settings: HeLa, 24 h, 0.1 μM
Procedure: as §1, §2

HeLa cells [1] = test: Mitochondrial membrane potential (JC-1); settings: 0.1 and 0.5 μM, 24 or 48 h
Procedure: The mitochondrial membrane potential was measured with the lipophilic cationic dye 5,5′,6,6′ tetrachlo-1,1′,3,3′-tetraethylbenzimidazolcarbocyanine (JC-1) (Molecular Probes), as described.[73] The method is based on the ability of this fluorescent probe to enter selectively into mitochondria since it changes reversibly its color from green to red as membrane potential increases. This property is due to the reversible formation of JC-1 aggregates upon membrane polarization that causes a shift in the emitted light from 530 nm (i.e., emission of JC-1 monomeric form) to 590 nm (emission of JC-1-aggregate) when excited at 490 nm.

HeLa cells [2] = test: Annexin-V/PI apoptosis assay
Procedure: To analyze the mode of cell death induced by compound 66 in HeLa cells, we utilized a double labeling assay of the cells with annexin-V and PI. This procedure, through a flow cytometric analysis, distinguishes four different cell populations: live cells (annexin-V^–/PI^–), early apoptotic cells (annexin-V^+/PI^–), late apoptotic cells (annexin-V^+/PI^+), and necrotic cells (annexin-V^–/PI^+).
Cell death was determined by flow cytometry of cells double stained with annexin V/FITC and PI. The Coulter Cytomics FC500 (Beckman Coulter) was used to measure the surface exposure of phosphatidylserine on apoptotic cells according to the manufacturer’s instructions (Annexin-V Fluos, Roche Diagnostics).

cdc25c = test: Western blot, G2/M checkpoint proteins; settings: HeLa, 0.5 μM
Procedure: (§3) Figure 6 Effects of 66 on G2/M checkpoint proteins. HeLa cells were treated with 0.1 or 0.5 μM compound 66 for 24 or 48 h. The cells were harvested and lysed for the detection of cdc25c, p-cdc2^Y15, and cyclin B expression by Western blot analysis. To confirm equal protein loading, each membrane was stripped and reprobed with anti-GAPDH antibody. The relative expression of proteins was analyzed by scanning densitometry using ImageJ software and reported as a ratio protein/GAPDH.
as §2

phosphorylated cdc2 = test: Western blot, G2/M checkpoint proteins; settings: HeLa, after both 24 and 48 h
Procedure: as §3, §2

cyclin B1 = test: Western blot, G2/M checkpoint proteins; settings: HeLa, 24 h, 0.5 μM
Procedure: as §3, §2

HeLa cells [3] = test: ROS production (H2-DCFDA); settings: 48 h, 0.5 μM
Procedure: One consequence of mitochondrial depolarization caused by the release of cytochrome c into the cytoplasm is the increase in reactive oxygen species (ROS).[65] Therefore, we wanted to evaluate whether ROS production increased following treatment with compound 66. To do this, we used the fluorescent probe 2,7-dichlorodihydrofluorescein diacetate (H2-DCFDA), which is oxidized to the fluorescent compound dichlorofluorescein (DCF) upon ROS production.
The production of ROS was measured by flow cytometry using H2DCFDA (Molecular Probes), as previously described.[59] Briefly, after different times of treatment, cells were collected by centrifugation and resuspended in PBS containing H2DCFDA at the concentration of 0.1 μM. The cells were then incubated for 30 min at 37 °C, centrifuged, and resuspended in PBS. The fluorescence was directly recorded with the flow cytometer, using as excitation wavelength 488 nm and emission at 530 nm.

SMILES	GI50 (UACC-257) [µM]	Mcl-1 levels (Mcl-1)	expression of Xiap (XIAP; 24 h)	expression of Xiap (XIAP; 48 h)	cleavage fragment of PARP (PARP)	percentage of cells with low Δψmt (HeLa cells [1])	apoptotic cells (HeLa cells [2]; 24 h, 0.5 μM)	necrotic cells (HeLa cells [2]; 48 h)	total cdc25c expression (cdc25c)	expression of phosphorylated cdc2 (phosphorylated cdc2)	cyclin B1 expression (cyclin B1)	ROS production (HeLa cells [3])
CCOC(=O)c1cc2c(n1Cc1cccc(OC)c1)-c1oncc1CCC2 [Compound 63, Ethyl 9-(3-Methoxybenzyl)-4,5,6,9-tetrahydropyrrolo[2′,3′:3,4]cyclohepta[1,2-d][1,2]oxazole-8-carboxylate]	7.61											
CCOC(=O)c1cc2c(n1Cc1cc(OC)cc(OC)c1)-c1oncc1CCC2 [Compound 66, Ethyl 9-(3,5-Dimethoxybenzyl)-4,5,6,9-tetrahydropyrrolo[2′,3′:3,4]cyclohepta[1,2-d][1,2]oxazole-8-carboxylate]		reduction	reduced	diappeared	appeared	significant increase	significant increase	substantial increase	strongly reduced	strongly decreased	substantial increase	induced the production of ROS
